Like-named read-outs stand apart in the source and are kept apart here.
Tests used:
[1] = Plasma free fraction (fu) and unbound Cmax (Cmax,u); format: in vitro ADME, human; details: unbound plasma Cmax
[2] = in vivo; cited from earlier work
[3] = tested on: THLE or HepG2 cells, isolated mitochondria, BSEP; details: cited from earlier work
PHH = details: cited from earlier work
hLiMTs [4] = details: cited from earlier work
[5] = read-out: Human plasma Cmax; total plasma Cmax.tot, median of 9 literature references; cited from earlier work
[6] = plasma free fraction; cited from earlier work
[7] = in vivo; cited from earlier work; remark: listed apart in the source
hLiMTs [8] = assay: Combined HCI (HCS) and cellular ATP 3D assay in hLiMTs; details: for minimal effective concentration: Homo sapiens; for DILI prediction hLiMTs (HCS-MEC): Microtissue model structural based (HCI), combined HCS and ATP, MEC < 25 × Cmax.tot cut-off; for hLiMTs <25x Avg Cmax ATP / hLiMTs <100x Avg Cmaxu ATP: ATP endpoint; for hLiMTs <25x Avg Cmax ATP / hLiMTs <25x Avg Cmax HCS / hLiMTs <25x Avg Cmax All: cut-off <25x Avg Cmax; for hLiMTs <100x Avg Cmaxu ATP / hLiMTs <100x Avg Cmaxu HCS / hLiMTs <100x Avg Cmaxu All: cut-off <100x Avg Cmaxu; for hLiMTs <25x Avg Cmax HCS / hLiMTs <100x Avg Cmaxu HCS: HCS endpoints; for hLiMTs <25x Avg Cmax All: all endpoints (ATP and HCS); for hLiMTs Cmax max All / hLiMTs Cmax min All / hLiMTs <10 uM All / hLiMTs <100x Avg Cmaxu All: all endpoints; for hLiMTs Cmax max All: Cmax max used; for hLiMTs Cmax min All: Cmax min used; for hLiMTs <10 uM All: cut-off <10 uM
HepaRG spheroids = assay: Combined HCI (HCS) and cellular ATP 3D assay in HepaRG spheroids; details: for HepaRG <25x Avg Cmax ATP / HepaRG <100x Avg Cmaxu ATP: ATP endpoint; for HepaRG <25x Avg Cmax ATP / HepaRG <25x Avg Cmax HCS / HepaRG <25x Avg Cmax All: cut-off <25x Avg Cmax; for HepaRG <100x Avg Cmaxu ATP / HepaRG <100x Avg Cmaxu HCS / HepaRG <100x Avg Cmaxu All: cut-off <100x Avg Cmaxu; for HepaRG <25x Avg Cmax HCS / HepaRG <100x Avg Cmaxu HCS: HCS endpoints; for HepaRG <25x Avg Cmax All: all endpoints (ATP and HCS); for HepaRG Cmax max All / HepaRG Cmax min All / HepaRG <10 uM All / HepaRG <100x Avg Cmaxu All: all endpoints; for HepaRG Cmax max All: Cmax max used; for HepaRG Cmax min All: Cmax min used; for HepaRG <10 uM All: cut-off <10 uM; for DILI prediction HepaRG spheroids (HCS-MEC): Microtissue model structural based (HCI), combined HCS and ATP, MEC < 25 × Cmax.tot cut-off; for minimal effective concentration: Homo sapiens; for HepaRG <25x Avg Cmax ATP / HepaRG <100x Avg Cmaxu ATP / HepaRG <25x Avg Cmax HCS / HepaRG <100x Avg Cmaxu HCS / HepaRG <25x Avg Cmax All / HepaRG Cmax max All / HepaRG Cmax min All / HepaRG <10 uM All / HepaRG <100x Avg Cmaxu All / minimal effective concentration: HepaRG
[9] = tested on: primary human hepatocytes, NIH3T3 fibroblasts, BSEP, CYP3A4; details: cited from earlier work
[10] = tested on: isolated mouse liver mitochondria; details: In vitro Assay; ref Porceddu 2012; cited from earlier work
[11] = In vitro Assay, ref Proctor 2017
[12] = In vitro Assay, ref Schadt 2015

Human plasma Cmax,u [1] [µM] | hLiMTs <25x Avg Cmax ATP (hLiMTs [8]) | hLiMTs <100x Avg Cmaxu ATP (hLiMTs [8]) | hLiMTs <25x Avg Cmax HCS (hLiMTs [8]) | hLiMTs <100x Avg Cmaxu HCS (hLiMTs [8]) | hLiMTs <25x Avg Cmax All (hLiMTs [8]) | hLiMTs Cmax max All (hLiMTs [8]) | hLiMTs Cmax min All (hLiMTs [8]) | hLiMTs <10 uM All (hLiMTs [8]) | hLiMTs <100x Avg Cmaxu All (hLiMTs [8]) | HepaRG <25x Avg Cmax ATP (HepaRG spheroids) | HepaRG <100x Avg Cmaxu ATP (HepaRG spheroids) | HepaRG <25x Avg Cmax HCS (HepaRG spheroids) | HepaRG <100x Avg Cmaxu HCS (HepaRG spheroids) | HepaRG <25x Avg Cmax All (HepaRG spheroids) | HepaRG Cmax max All (HepaRG spheroids) | HepaRG Cmax min All (HepaRG spheroids) | Compound | Cmax [5] [µM] | fu [6] | DILI prediction hLiMTs (HCS-MEC) (hLiMTs [8]) | further results
1.183 | -ve | -ve | -ve | +ve (<100x Avg Cmaxu) | -ve | -ve | -ve | -ve | +ve (<100x Avg Cmaxu) | -ve | -ve | -ve | -ve | -ve | -ve | -ve | Nc1cc(N2CCCCC2)nc(N)[n+]1[O-] [minoxidil] | 1.2 | 0.990 | -VE | DILI +VE (5-8), DILI -VE (-4) [2]: -VE; DILI severity category (Chen 2016) [2]: No; DILI severity category (Chen et al. [2016]) [2]: No; Partition Hybrid HRM Score ≥8, Aleo (2019) [3]: -VE; Rule of Two hybrid HRM Score ≥8, Aleo (2019) [3]: -VE; PHH/100uM, Proctor (2017) (PHH; 2D PHH, ATP, IC50 threshold 100 µM, ref Proctor et al. 2017): -VE; PHH ATP <100uM (PHH; [11]): -VE; hLiMTs ATP <100uM (hLiMTs [4]; [11]): -VE; hLiMTs/100uM, Proctor (2017) (hLiMTs [4]; hLiMTs, ATP, IC50 threshold 100 µM, ref Proctor et al. 2017): -VE; Assigned DILI category [7]: 1; In vivo DILI [7]: -VE; minimal effective concentration (hLiMTs [8]; read-out: HCS endpoint MEC): 111 µM; HepaRG <10 uM All (HepaRG spheroids): -ve; HepaRG <100x Avg Cmaxu All (HepaRG spheroids): -ve; DILI prediction HepaRG spheroids (HCS-MEC) (HepaRG spheroids): -VE
0.080 | -ve | -ve | -ve | -ve | -ve | -ve | -ve | -ve | -ve | -ve | -ve | -ve | -ve | -ve | -ve | -ve | CCOC(=O)CN[C@@H](C(=O)N1CC[C@H]1C(=O)NCc1ccc(/C(N)=N\O)cc1)C1CCCCC1 [ximelagatran] | 0.38 | 0.210 | -VE | DILI in vitro assay prediction, Schadt (2015) ([9]; BSEP & Metabolism based, ref Schadt et al. 2015): -VE; Cellular toxicity (3T3 cells) [9, 12]: -VE; Combined Assay [9, 12]: -VE; GSH adduct HML [9, 12]: -VE; Hepatocyte cellular toxicity [9, 12]: -VE; MitoTox 3T3 [9, 12]: -VE; TDI CYP3A4 [9, 12]: -VE; hBSEP inhibition [9, 12]: -VE; in vitro data EC2<=1x Cmax [10]: -VE; minimal effective concentration (hLiMTs [8]; read-out: ATP endpoint MEC): 61.8 µM; HepaRG <10 uM All (HepaRG spheroids): -ve; HepaRG <100x Avg Cmaxu All (HepaRG spheroids): -ve; minimal effective concentration (HepaRG spheroids; read-out: ATP endpoint MEC): 149 µM; minimal effective concentration (HepaRG spheroids; read-out: HCS endpoint MEC): 133 µM; DILI prediction HepaRG spheroids (HCS-MEC) (HepaRG spheroids): -VE

Reference: paper PMC7395068, “The evolution of strategies to minimise the risk of human drug-induced liver injury (DILI) in drug discovery and development” (Archives of Toxicology, 2020)
